Assays:
[1] = system: PBMC; assay: Lymphoproliferative test (tritiated thymidine); format: cell-based, human; conditions: positive control, 1 μg/mL, 5 days, tested 12 times
Method: To evaluate the antigenic capacity of CBS dendrimers, a lymphoproliferative test was performed. The experiment was prepared in triplicate in a 96-well flat bottomed plate (100,000 cells per well in 200 μl of complete human AB medium with antibiotics, glutamine and 10% AB serum). […] After 5 days of incubation at 37° C. with 5% atmosphere of CO2 100 μl of supernatant was removed, then adding 100 μL of a medium with an isotopic intercalating agent of DNA, tritiated thymidine (prepared with 10% AB medium and Thymidine 1/100). The plate was then filtered using a Harvester passing its content through a filter, which was left to dry overnight (approx. 16 hours). After this period, a sheet of Methylex® containing scintillation medium was heat-melted, and it was read in a gamma camera to evaluate the number of counts (greater the counts, more proliferation). The results, which are shown below in Table 8, are expressed as tritiated thymidine counts per minute (cpm). Each result of each concentration was performed in triplicate, the value which appears in the table being the average of the 3. The PHA and the control were tested 12 times.

[2] = system: erythrocytes; assay: Haemolysis test (haemoglobin release after 1 hour); format: cell-based; conditions: positive control, 0.2% Triton X-100
Method: A visual examination was carried out to detect the presence/absence of hemagglutination and quantification of haemoglobin release (haemolysis test) by spectrophotometry. ClNH4 was excluded from the dendrimers of previous Example 38, as the result had been more toxic for lymphocytes, and the results were compared with those produced for a PAMAN type generation 4 dendrimer.
The erythrocytes were obtained after being separated from the PBMC using the same Ficoll gradient cited in the previous Example. They were diluted in PBS to be able to view them individually. The cells were resuspended in 500 μl of PBS and were seeded in a 24-well plate (300,000/well). As positive control, cells treated with 0.2% Triton X-100 were used. Negative control: PBS (blank). The erythrocytes were incubated with different dendrimer concentrations. The presence of hemagglutination, number of cells and release of haemoglobin by hour were evaluated by collecting 100 μl of supernatant and measuring absorbencies by spectrophotometry using a plate reader at a wavelength of 550 nm and 690 nm as reference.
100% haemolysis in the control of Triton X-100 (the cells treated with Triton were all dead and broken). […] Each well is expressed as the percentage with respect to the O.D. (optical density) of Triton X-100, which is considered 100%; in addition to that percentage 7% of the control is subtracted. […]

[3] = system: PBMC; assay: Flow cytometry test (size and complexity; live cells vs apoptosis-necrosis); format: cell-based, human; conditions: 72 hours, same concentrations as Trypan Blue test
Method: The evaluation time on this occasion was 72 hours. The toxicity was evaluated on PBMC, produced in the manner described in Example 38. […] The ODN used was PPT, in the following way: • [ODN PPT] in the complex with the CBS: 2.57 (0.88 μM) • [ODN PPT] in the complex with SF: 0.34 μM • [ODN PPT] in the complex with G4: 1 μM […] The cells were either incubated with said complexes, a mixture of equal volume which contained ODN without CBS, a mixture which contained dendrimer alone, or with a mixture which contained only RPMI+complete medium which was used as negative control. The cells and/or the supernatant were then collected to be analysed by flow cytometry, confocal microscopy or cell DNA extraction. The percentages of cells with size and complexity corresponding to cells in apoptosis-necrosis were compared with the live cells. For this, the size (FW) and the complexity (SD) was evaluated by flow cytometry. To do this, a region was drawn around the cells with FW and SD corresponding to cells in apoptosis-necrosis and another around the cells with FW and SD corresponding to live cells. The percentages of cells present in each slide were compared. The graphics produced are shown in FIG. 15, wherein the X-axis represents the size (FW) and the Y-axis the complexity (SD). […] The cloud of dark cells corresponds to cells in apoptosis necrosis. The live cells are represented in grey.

[4] = system: PBMC; assay: Staining with Trypan Blue of PBMC treated with dendriplexes or dendrimers; conditions: 72 hours, (+/−)=2/1, IM8 3.93 μM, IM16 1.99 μM, ClNH4 3.98 μM, Phe 1.96 μM, NN 3.94 μM, SF 0.68 μM, G4 100 μM, PPT 0.88 μM (0.34 μM with SF, 1 μM with G4), n = 100 cells per count
[5] = system: ODN; assay: Complex formation between CBS and ODN (agarose gel electrophoresis); format: binding; conditions: 3% agarose gel, RPMI, excess positive charge (+/−) 2/1 and higher
From the text: The oligonucleotidic sequences used were antisense sequences (complementary) directed against HIV RNA. The length varied from 15 to 28 bases, being of phosphorothioate nature. The specific ODN used and their sequences are shown below in Table 1.
Several of the ODN were used fluorescent at the 5′ end. This is indicated by adding the letter F to its notation. Thus, “GF” makes reference to the fluorescent anti-gag ODN at end 5′, whilst “RF” makes reference to the anti-Rev ODN fluorescent at end 5′.
Different agarose concentrations were used to show the migration of the ODN and the dendriplexes, bearing in mind the small size of the ODN used. Finally, a 3% agarose concentration in TAE 1× was chosen as the best. The migration of non-fluorescent ODNs was compared with fluorescent ones, both migrating at the same height but the latter increasing the signal perceived considerably. Using them, it thus avoided the isotopic labelling of the ODN. A double well was manufactured to prepare these gels, to permit load volumes of 60 μl, of which 50 μl was mixture volume of the samples in RPMI and 10 μl load buffer with glycerol. As size marker, a ladder of 100 base pairs was used (Gibco BRL®).
For the complex formations in all the tests performed, both on gels and on cells the ratio between the number of positive and negative charges in said complex was taken. As published by different authors in studies with PAMAM dendrimers, it is necessary that the complex formed has an excess positive charge to facilitate its binding to the cell membrane glycoproteins, negatively charged, thus starting the endocytosis process. Likewise, an excess of positive charge is added to ensure the formation of the dendrimer-DNA complex. Therefore, the complexes between the CBS dendrimers and the different nucleic acids were formed in excess number of positive charges (provided by the CBS) compared with negative charges (provided by the ODN). Nevertheless, different charge ratios were tested, making the calculations based in the number of dendrimer charges (fixed) and the number of negative charges of the ODN (also fixed). The 2/1 ratio of positive/negative charges was fixed as sufficient in all dendrimers to form the complexes with a total positive charge, although in some experiments a balance was provided of an equal number of negative charges as positive charges or excess negative charges.
In all the tests, a complex formation volume of 60 μl was used, using phenol red without RPMI serum as support medium.
Tests of complex formation were used with the dendrimers of the invention IM8, ClNH4, NN, Phe and IM16.
The synthesis process of the CBS used in this work begins from an initial nucleus of common structure, which is ended functionalizing in the periphery by the use of different functional groups, which are those which provide the positive charge to the dendrimer and determine the differences between themselves, the dendrimeric nucleus being of apolar nature. Since some of the bonds of the functional groups used to the dendrimeric nucleus could be unstable in aqueous solution, tests were performed to determine if the DNA retention in agarose gels and, therefore, the complex formation between the CBS and the DNA could be due to the total dendrimer structure being conserved or in contrast, the terminal functional groups came away from the moiety of the dendrimeric core which are responsible for the DNA retention. For this, gels were used in which complexes were formed between the ODNs and the integral CBS and those formed supposedly between the ODNs and the terminal functional groups with which the carbosilane skeleton had functionalized, in this case quaternized dimethylethanolamine. As has previously been commented, those positively charged molecules, which are bound to the dendrimer as terminal functional groups, are those which give the dendrimer its charge. As control, the mixtures of ODN-dendrimers, ODN-monomers and ODN alone were compared. […]

“phytohemagglutinin [PHA, reference compound]” was tested, and the “Measurement of the scintillation counter (tritiated thymidine counts)” value [1] was 10267 cpm.

Triton X-100 showed a haemolysis [2] of 100%.

“PPT: antisense phosphorothioate ODN against HIV mRNA, AATTTTCTTTTCGCCCCT (SEQ ID NO: 3), 18 bases [reference compound]” was tested, and the “Apoptosis-necrosis (%)” value [3] was 23%, the “Live cells (%)” value [3] was 71% and the “TB+ (%), cells stained with Trypan Blue” value [4] was 11.9%.

In the case of “quaternized dimethylethanolamine [monomers, reference compound]”, the “complex formation with ODN (retention of DNA migration in gel)” value [5] is reported as “not being capable”.
